Measurements: US6790978B2, “Thyromimetic organic compounds” (Novartis AG, priority 1999, dated 2004)

Columns and labels:
[1] = target: triiodothyronine (T3) nuclear receptor; test: T3 nuclear receptor binding assay (rat liver nuclei, [125I]-L-T3 displacement); conditions: 0.3 nM [125I]-L-T3, 22° C.
Protocol: The in vitro binding to T3 nuclear receptors is determined as follows:
Rat liver nuclei and plasma membrane preparations are obtained from Sprague-Dawley (CD) rats (Charles River Labs.) by differential centrifugation as described by Emmelot at al (Methods in Enzymology 31:75, Part A, 1974) with minor modificatons. The nuclear fraction obtained from the 275 ×g pellet is further purified as generally described by Spindler et al (J. Biol. Chem. 250:4118, 1975).
The novel test compounds are assayed for binding to the nuclei by the method of Spindler et al (J. Biol. Chem. 250:4118, 1975). The nuclei are incubated at 22° C. with 0.3 nM of [^125I]-L-triiodothyronine (L-T3). Parallel incubations are conducted with tubes containing, in addition to the nuclei and radioactive L-T3, either various concentrations of the test compounds or 3 μM of nonradioactive L-T3. The latter is used as a measure of nonspecific binding. The radio-activity bound to the nuclei is determined following centrifugation of the reaction mixture at 800×g for 7 minutes and washing of the pellet obtained. The amount of [^125I]-L-T3 specifically bound is determined by subtracting the amount nonspecifically bound (radioactivity contained in the nuclear pellet following incubation with excess (3 μM) non-radioactive L-T3. The concentration of test compound which inhibits the specific binding of [^125I]-L-T3 by 50 percent (IC50) is determined graphically from the reciprocal plot of the specifically bound [^125I]-L-T3 versus the various concentrations of the test compound.

serum cholesterol [2] = test: Cholesterol lowering activity in the rat on a high cholesterol diet; format: in vivo; conditions: daily dose of about 20 μg/kg p.o.
Protocol: Cholesterol lowering activity is determined in the rat as follows:
Male Sprague-Dawley rats (230-250 g) (Taconic Farms) are maintained ad libitum on water and a high cholesterol diet (1.5% cholesterol and 0.5% cholic acid) for two weeks prior to and during the 7-day treatment period. Groups of animals are treated orally by gavage with the vehicle alone or with test compound for 7 consecutive days. After the last dose, animals are fasted for 18 hours and blood is collected. Blood samples are centrifuged at 2500 rpm for 10 minutes to prepare plasma for total cholesterol determination as well as LDL and HDL cholesterol concentrations. HDL values are determined after […] (Warnick and Albers, 1978). All samples are analyzed enzymatically for cholesterol with a diagnostic reagent kit (Sigma Chemical Co., St. Louis, Mo.). The analysis is performed on a Bio-Mek automated work station. LDL/VLDL fractions are precipitated in the following manner: 0.35 mL of plasma is aliquoted into Eppendorf tubes to which 12 μL of 2M manganese chloride, 11.2 μL of sodium heparin (Porcine Intestinal, 5000 units/mL), and 8.3 μL of normal saline are added. The samples are vortexed and are placed on ice for 15 minutes, then centrifuged at 4° C. for 10 minutes at 1300 rpm and the supernatant is enzymatically analyzed for cholesterol. […]

serum cholesterol [3] = test: Cholesterol lowering activity in normocholesterolemic dogs; format: in vivo; conditions: dog, daily dose of about 10 μg/kg p.o.
Excerpt: Cholesterol lowering activity can also be evaluated in normocholesterolemic dogs fed regular chow following the procedure described above, by administration of test compound orally for 5 days.

Lp(a) = Lp(a) lowering activity in the normolipemic cynomolgus monkey; format: in vivo, cynomolgus monkey (Macaca fascicularis); conditions: normolipemic cynomolgus monkeys, 4 week treatment, daily oral dose of 75 μg/kg
Protocol: Cholesterol and Lp(a) lowering activity can be determined in the normolipemic cynomolgus monkey as follows:
Adult male and female cynomolgus monkeys (Macaca fascicularis) weighing 3-7 kg are used. Animals are individually housed and fed a standard monkey chow diet (Purina 5047) supplemented with fresh fruits and vegetables. Each animal serves as its own control and each dosing regime is followed by a wash out period. Test compounds were dissolved in ethanol, imbibed in fruit pulp and administered orally. Animals are dosed once a day with test compounds for a treatment period varying from 8 to 28 days. Blood samples are obtained after an overnight fast at baseline and at the end of the study. […] Plasma samples are divided into aliquots and stored at −70° C. until analyzed. Plasma concentrations of total cholesterol (TC) and triglycerides (TG) are determined by enzymatic methods using commercial kits (Sigma Diagnostics). High-density lipoprotein cholesterol (HDL-C) concentration is measured after precipitation of apoB-containing lipoproteins. Since the fasting plasma of cynomolgus monkeys on a chow diet contains negligible amounts of cholesterol in very low-density lipoprotein, the low-density lipoprotein cholesterol (LDL-C) concentration is calculated by subtracting HDL-C from TC. […] Quantification of Lp(a) is not affected by apo(a) size. […]

| SMILES | IC50 [1] | serum cholesterol lowering (serum cholesterol [2]) | serum cholesterol lowering (serum cholesterol [3]) | Lp(a) levels lowered (Lp(a)) |
| --- | --- | --- | --- | --- |
| Cc1cc(NC(=O)CC(=O)O)cc(C)c1Oc1ccc(O)c(S(=O)(=O)c2ccc(F)cc2)c1 [Example 35, N-{4-[3-(4-Fluorobenzenesulfonyl)-4-hydroxyphenoxy]-3,5-dimethylphenyl}malonamic acid] | ~1 nM |  |  |  |
| Cc1cc(NC(=O)C(=O)O)cc(C)c1Oc1ccc(O)c(S(=O)(=O)c2ccc(Cl)cc2)c1 [Example 28] | ~0.13 nM |  |  |  |
| Cc1cc(NC(=O)C(=O)O)cc(C)c1Oc1ccc(O)c(S(=O)(=O)c2ccc(F)cc2)c1 [Example 26, N-{4-[3-(4-Fluorobenzenesulfonyl)4-hydroxyphenoxy]-3,5-dimethylphenyl}oxamic acid] | ~0.17 nM | significantly lowers serum cholesterol | significantly lowers serum cholesterol | about 40% |
| O=C(O)C(=O)Nc1cc(Br)c(Oc2ccc(O)c(S(=O)(=O)c3ccc(F)cc3)c2)c(Br)c1 [Example 39, N-{3,5-Dibromo-4-[3-(4-fluorobenzenesulfonyl)-4-hydroxyphenoxy]phenyl}oxamic acid] | ~0.04 nM |  |  |  |
